We go through 4 compounds from patent US12234230B2, “Substituted benzyl-triazole compounds for Cbl-b inhibition, and further uses thereof” (Nurix Therapeutics, Inc., priority 2019, dated 2025).

In one test the test system is TC-1 cells. In words: TC-1 syngeneic mouse model, vaccine combination, Biological Example 15. The following applies: Compound 23 orally D13 to D47 in combination with HPV16 vaccine s.c. at D13 and D20; TC-1 tumor bearing mice. Type of test: in vivo. As to the method: Mice were implanted with 50,000 TC-1 cells/mouse subcutaneously into the right flank at Day Zero (DO). Thirteen days later (D13), when tumors measured approximately 50-100 mm^3, mice from appropriate groups (15 mice per group) were injected with HPV16 vaccine (s.c., total 2 doses, at D13 and Day 20 (D20)). […] Mice were euthanized when tumor exceeded 1500-2000 mm^3, according to IACUC guidelines. Survival was compared using GraphPad Prism using log-rank (Mantel-Cox) test. **=p<0.001 of treatment vs. Vehicle+Vaccine control group at Day 61.
TC-1 cells were derived by stable transfection of mouse lung epithelial cells with human papillomavirus strain 16 (HPV16) early proteins 6 and 7 (E6 and E7) and activated h-ras oncogene. Cells were obtained from Dr. T-C Wu (Johns Hopkins University). (Lin K Y, Guarnieri F G, Staveley-O'Carroll K F, Levitsky H I, August J T, Pardoll D M, et al. Treatment of established tumors with a novel vaccine that enhances major histocompatibility class II presentation of tumor antigen. Cancer Res 1996; 56:21-6).
The HPV16 vaccine was prepared as follows: The CTL epitope from HPV16 E749-57 (9 amino acid (aa) peptide, […], 100 μg/mouse, SEQ ID NO: 2) was mixed with synthetic T helper epitope PADRE (13 aa peptide, aK-Cha-[…]a, SEQ ID NO: 3, where “a” is D-alanine and Cha is L-cyclohexylalanine, 20 μg/mouse) and with QuilA adjuvant (20 ug/mouse).

Test [1] deals with T1, Cbl-b (Homo sapiens (Human), UniProt Q13191). In words: Cbl-b displacement assay (Cbl-b inhibition assay), Biological Example 11. It is filed as binding. The following applies: 0.125 nM Cbl-b final concentration (Low); Table 11-1. As to the method:
(§1) Candidate compounds were evaluated for their ability to bind and inhibit Cbl-b, an E3 ubiquitin-protein ligase, as evidenced by their ability to displace a fluorophore-labeled probe bound to Cbl-b.
(§2) The ability of candidate compounds to displace a known inhibitor and thereby inhibit Cbl-b activity was measured by monitoring the interaction of Cbl-b with a fluorophore-labeled probe in the presence of the candidate compound.
(§3) Fluorescently-labeled inhibitor probe was synthesized and tagged with BODIPY FL. […] Following the one hour incubation, the plates were read for TR-FRET signal at 520/620 nm using an Envision plate reader (Perkin Elmer).
(§4) The resulting data for the Cbl-b activity assays were analyzed using standard methods to determine the IC50 values for the tested compounds.

Test [2] has as its system primary human total T-cells. Put plainly: Primary human total T-cell activation (IL-2 secretion, CD25 surface staining), Biological Example 9. The following applies: fold change over baseline, Table 9-1; for IL-2 secretion CD3/CD28 0.3 μM: 0.3 μM inhibitor; for IL-2 secretion CD3/CD28 0.3 μM / IL-2 secretion CD3/CD28 1 μM: anti-CD3 and anti-CD28 co-stimulation; for IL-2 secretion CD3/CD28 1 μM / IL-2 secretion CD3 1 μM: 1 μM inhibitor; for IL-2 secretion CD3 1 μM / IL-2 secretion CD3 3 μM: anti-CD3 stimulation alone; for IL-2 secretion CD3 3 μM: 3 μM inhibitor.
Procedure: Peripheral blood mononuclear cells (PBMC) were obtained either: 1) by using Ficoll-Paque™ (GE Healthcare) for separation of peripheral blood hematopoietic cells from buffy coats of healthy human donors; or 2) directly from LeukoPak donations. […] The cells were rested overnight at 37° C. 5% CO2. The Cbl-inhibitor was added to 1×10^5 cells per well and the plate was incubated for one hour at 37° C. in 5% CO2 at the concentrations indicated (Table 9-1) with a final DMSO concentration of <0.1%. For samples stimulated with anti-CD3 antibody and anti-CD28 antibody (anti-CD3/anti-CD28), the Cbl-b inhibitor concentrations tested were 1 μM, and 0.3 μM. For samples stimulated with anti-CD3 antibody alone (anti-CD3), the Cbl-b inhibitor concentrations tested were 3 μM, and 1 μM. […] To prepare plates with plate bound anti-CD3 antibody (OKT3), 96-well round bottom tissue culture plates were coated with 100 μL of anti-CD3 antibody (OKT3) at 10 μg/mL for 4 hours at 37° C. 5% CO2 in phosphate buffered saline (PBS). […] Cells were stimulated for 48 hours prior to harvesting the cell free supernatant and staining the cell population for surface marker assessment by flow cytometry. Supernatants were analyzed for cytokine secretion, including IL-2 by ELISA (R&D Systems, Peprotech or Life Technologies) or Luminex multiplex kits (Procarta Life Technologies) following the manufacturer's protocol. Cells were stained with anti-CD25 antibody (BD Biosciences) to assess levels of surface marker of activation.
Readouts were reported as fold change over baseline. Baseline for this study was the measurement obtained from total human T-cells stimulated with anti-CD3 antibody and with soluble anti-CD28 antibody, wherein the cells were not incubated with a Cbl-b inhibitor (Table 9-1). […] For T-cells stimulated with anti-CD3 alone, changes greater than 0.1-fold over baseline for IL-2 secretion and greater than 0.6-fold over baseline for CD25 surface staining were considered significant and a positive response.

Test [3] relates to colon carcinoma CT26 tumor cells. The following applies: 30 mg/kg PO daily D8 to D28; CT26 tumors on both flanks; compared to vehicle control. As to the method: Mice were implanted with 100,000 colon carcinoma CT26 tumor cells on both flanks of the mice. […] Treatments were continued daily until Day Twenty Eight (D28). […] A group of mice received an oral vehicle (0.5% Methylcellulose, 0.2% Polysorbate 80). Tumor growth inhibition (TGI) was calculated as follows: (1−(median tumor volume of drug treated group/median tumor volume of vehicle treated group))×100.

For test [4], the target named is T1, Cbl-b. Put plainly: Cbl-b displacement assay (Cbl-b inhibition assay), Biological Example 8. Type of test: binding. Particulars: 0.125 nM Cbl-b final concentration (Low); Table 8-1. As to the method: as §1, §2, §3, §4
The test system of test [5] is primary human total T-cells. In words: Primary human total T-cell activation (IL-2 secretion, CD25 surface staining), Biological Example 12. Particulars: fold change over baseline, Table 12-1; for IL-2 secretion CD3/CD28 0.3 μM: 0.3 μM inhibitor; for IL-2 secretion CD3/CD28 0.3 μM / IL-2 secretion CD3/CD28 1 μM: anti-CD3 and anti-CD28 co-stimulation; for IL-2 secretion CD3/CD28 1 μM / IL-2 secretion CD3 1 μM: 1 μM inhibitor; for IL-2 secretion CD3 1 μM / IL-2 secretion CD3 3 μM: anti-CD3 stimulation alone; for IL-2 secretion CD3 3 μM: 3 μM inhibitor.
Procedure: Peripheral blood mononuclear cells (PBMC) were obtained either: 1) by using Ficoll-Paque™ (GE Healthcare) for separation of peripheral blood hematopoietic cells from buffy coats of healthy human donors; or 2) directly from LeukoPak donations. […] The cells were rested overnight at 37° C. 5% CO2. The Cbl-inhibitor was added to 1×10^5 cells per well and the plate was incubated for one hour at 37° C. in 5% CO2 at the concentrations indicated (Table 12-1) with a final DMSO concentration of <0.1%. For samples stimulated with anti-CD3 antibody and anti-CD28 antibody (anti-CD3/anti-CD28), the Cbl-b inhibitor concentrations tested were 1 μM, and 0.3 μM. For samples stimulated with anti-CD3 antibody alone (anti-CD3), the Cbl-b inhibitor concentrations tested were 3 μM, and 1 μM. […] To prepare plates with plate bound anti-CD3 antibody (OKT3), 96-well round bottom tissue culture plates were coated with 100 μL of anti-CD3 antibody (OKT3) at 10 μg/mL for 4 hours at 37° C. 5% CO2 in phosphate buffered saline (PBS). […] Cells were stimulated for 48 hours prior to harvesting the cell free supernatant and staining the cell population for surface marker assessment by flow cytometry. Supernatants were analyzed for cytokine secretion, including IL-2 by ELISA (R&D Systems, Peprotech or Life Technologies) or Luminex multiplex kits (Procarta Life Technologies) following the manufacturer's protocol. Cells were stained with anti-CD25 antibody (BD Biosciences) to assess levels of surface marker of activation.
Readouts were reported as fold change over baseline. Baseline for this study was the measurement obtained from total human T-cells stimulated with anti-CD3 antibody and with soluble anti-CD28 antibody, wherein the cells were not incubated with a Cbl-b inhibitor (Table 12-1). […] For T-cells stimulated with anti-CD3 alone, changes greater than 0.1-fold over baseline for IL-2 secretion and greater than 0.6-fold over baseline for CD25 surface staining were considered significant and a positive response.

Test [6] concerns primary human total T-cells. In words: Primary human total T-cell activation (IL-2 secretion, CD25 surface staining), Biological Example 2. The following applies: fold change over baseline; for CD25 staining CD3/CD28 0.3 μM / IL-2 secretion CD3/CD28 0.3 μM: 0.3 μM inhibitor; for CD25 staining CD3/CD28 0.3 μM / IL-2 secretion CD3/CD28 0.3 μM / CD25 staining CD3/CD28 1 μM / IL-2 secretion CD3/CD28 1 μM: anti-CD3 and anti-CD28 co-stimulation; for CD25 staining CD3/CD28 1 μM / IL-2 secretion CD3/CD28 1 μM / CD25 staining CD3 1 μM / IL-2 secretion CD3 1 μM: 1 μM inhibitor; for CD25 staining CD3 1 μM / IL-2 secretion CD3 1 μM / CD25 staining CD3 3 μM / IL-2 secretion CD3 3 μM: anti-CD3 stimulation alone; for CD25 staining CD3 3 μM / IL-2 secretion CD3 3 μM: 3 μM inhibitor.

The target in test [7] is T1, Cbl-b. In words: Cbl-b displacement assay (Cbl-b inhibition assay), Biological Example 1. Type of test: binding. As to the method:
as §2
Following the one hour incubation, the plates were read for TR-FRET signal at 520/620 nm using an Envision plate reader (Perkin Elmer).

The mark [8] stands for this setting: 0.125 nM Cbl-b final concentration (Low), read-out: Cbl-b activity IC50 (Low).

T1 sequence (Q13191 36-427): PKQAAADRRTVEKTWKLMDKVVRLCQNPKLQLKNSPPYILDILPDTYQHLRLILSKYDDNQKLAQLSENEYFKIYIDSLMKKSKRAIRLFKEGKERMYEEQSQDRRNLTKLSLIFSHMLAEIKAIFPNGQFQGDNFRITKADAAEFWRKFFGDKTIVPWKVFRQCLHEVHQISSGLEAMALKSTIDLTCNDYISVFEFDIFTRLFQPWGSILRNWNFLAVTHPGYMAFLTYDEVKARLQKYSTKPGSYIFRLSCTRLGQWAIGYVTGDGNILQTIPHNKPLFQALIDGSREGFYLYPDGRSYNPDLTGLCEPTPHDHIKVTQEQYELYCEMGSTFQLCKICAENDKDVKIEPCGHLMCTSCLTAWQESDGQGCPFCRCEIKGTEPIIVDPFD

With `C[C@H]1CCCN(Cc2cc3c(c(C(F)(F)F)c2)CN(c2cccc([C@]4(c5nncn5C)C[C@@H](C)C4)c2)C3=O)C1` [Compound 23, 2-(3-((1s,3R)-3-methyl-1-(4-methyl-4H-1,2,4-triazol-3-yl)cyclobutyl)phenyl)-6-(((S)-3-methylpiperidin-1-yl)methyl)-4-(trifluoromethyl)isoindolin-1-one], in the test with TC-1 cells, the survival entry is reported as “prolonged survival” and the “tumor progression (tumor volume)” value was “significant slowdown of tumor progression”. Further, the concentration for half-maximal inhibition (IC50) at Cbl-b [1] was under 1 nM. Further, in test [2], the “IL-2 secretion CD3/CD28 0.3 μM” value is on record as “A (A indicates >15 fold)” and the “IL-2 secretion CD3/CD28 1 μM” value is given as “A (A indicates >15 fold)”. Besides, the “Tumor growth inhibition (TGI)” value in test [3] stood at 68%. This compound also showed an IC50 at Cbl-b [4] of under 1 nM. Also, in test [5], the “IL-2 secretion CD3/CD28 0.3 μM” value is “A (A indicates >15 fold)” and the “IL-2 secretion CD3/CD28 1 μM” value was “A (A indicates >15 fold)”. Moreover, in test [6], the “CD25 staining CD3/CD28 0.3 μM” value was “B (B indicates 1.24-1.39 fold)”, the “IL-2 secretion CD3/CD28 0.3 μM” value was “C (C indicates <20 fold)”, the “CD25 staining CD3/CD28 1 μM” value is reported as “B (B indicates 1.24-1.39 fold)” and the “IL-2 secretion CD3/CD28 1 μM” value is given as “C (C indicates <20 fold)”. For the same compound, the half-inhibitory concentration (IC50) on Cbl-b [7] (setting [8]) was under 5 nM.
Take `C[C@H]1CCCN(Cc2cc3c(c(C(F)(F)F)c2)CN(c2cccc([C@]4(c5nncn5C)C[C@@H](C#N)C4)c2)C3=O)C1` [Compound 38, (1R,3s)-3-(4-methyl-4H-1,2,4-triazol-3-yl)-3-(3-(6-(((S)-3-methylpiperidin-1-yl)methyl)-1-oxo-4-(trifluoromethyl)isoindolin-2-yl)phenyl)cyclobutane-1-carbonitrile]: on Cbl-b [1], the concentration for half-maximal inhibition (IC50) is 1 to 5 nM. Besides, in test [2], the “IL-2 secretion CD3/CD28 0.3 μM” value is on record as “A (A indicates >15 fold)”, the “IL-2 secretion CD3/CD28 1 μM” value was “A (A indicates >15 fold)”, the “IL-2 secretion CD3 1 μM” value is on record as “A (A indicates >0.66 fold)” and the “IL-2 secretion CD3 3 μM” value was “A (A indicates >0.66 fold)”. Further, the IC50 on Cbl-b [4] was in the range of 1 to 5 nM. Further, in test [5], the “IL-2 secretion CD3/CD28 0.3 μM” value is on record as “A (A indicates >15 fold)”, the “IL-2 secretion CD3/CD28 1 μM” value is on record as “A (A indicates >15 fold)”, the “IL-2 secretion CD3 1 μM” value is “A (A indicates >0.66 fold)” and the “IL-2 secretion CD3 3 μM” value is on record as “A (A indicates >0.66 fold)”. For the same compound, in test [6], the “IL-2 secretion CD3/CD28 0.3 μM” value is recorded as “B (B indicates 20-35 fold)”, the “IL-2 secretion CD3/CD28 1 μM” value is on record as “B (B indicates 20-35 fold)”, the “CD25 staining CD3 1 μM” value is reported as “A (A indicates >2.5 fold)” and the “IL-2 secretion CD3 1 μM” value is given as “A (A indicates >1.1 fold)”. Besides, in test [6], the “CD25 staining CD3 3 μM” value is given as “A (A indicates >2.5 fold)” and the “IL-2 secretion CD3 3 μM” value is “B (B indicates 0.70-1.1 fold)”. The IC50 at Cbl-b [7] (setting [8]) was under 5 nM.
In turn, `C[C@H]1CCCN(Cc2cc3c(c(C(F)(F)F)c2)CN(c2cccc([C@H](c4nncn4C)C4CCC4)c2)C3=O)C1` [Compound 3, 2-(3-((R)-cyclobutyl(4-methyl-4H-1,2,4-triazol-3-yl)methyl)phenyl)-6-(((S)-3-methylpiperidin-1-yl)methyl)-4-(trifluoromethyl)isoindolin-1-one] returned a 50% inhibitory concentration (IC50) on Cbl-b [1] of under 1 nM. In addition, in test [2], the “IL-2 secretion CD3/CD28 0.3 μM” value is on record as “A (A indicates >15 fold)”, the “IL-2 secretion CD3/CD28 1 μM” value is “A (A indicates >15 fold)”, the “IL-2 secretion CD3 1 μM” value is recorded as “A (A indicates >0.66 fold)” and the “IL-2 secretion CD3 3 μM” value was “A (A indicates >0.66 fold)”. At Cbl-b [4], this compound showed a concentration for half-maximal inhibition (IC50) of under 1 nM. Moreover, in test [5], the “IL-2 secretion CD3/CD28 0.3 μM” value is “A (A indicates >15 fold)”, the “IL-2 secretion CD3/CD28 1 μM” value is recorded as “A (A indicates >15 fold)”, the “IL-2 secretion CD3 1 μM” value is on record as “A (A indicates >0.66 fold)” and the “IL-2 secretion CD3 3 μM” value is listed as “A (A indicates >0.66 fold)”. Besides, in test [6], the “IL-2 secretion CD3/CD28 0.3 μM” value is “A (A indicates >35 fold)”, the “IL-2 secretion CD3/CD28 1 μM” value is reported as “A (A indicates >35 fold)”, the “CD25 staining CD3 1 μM” value is “A (A indicates >2.5 fold)” and the “IL-2 secretion CD3 1 μM” value is “A (A indicates >1.1 fold)”. Further, in test [6], the “CD25 staining CD3 3 μM” value is recorded as “A (A indicates >2.5 fold)” and the “IL-2 secretion CD3 3 μM” value is recorded as “A (A indicates >1.1 fold)”. Further, at Cbl-b [7] (setting [8]), the IC50 is under 5 nM. The IC50 on Cbl-b [7] (read-out: IC50 values in the Cbl-b inhibition assay of Biological Example 1) was at most 5 nM.
The compound `C[C@H]1CCCN(Cc2cc3c(c(C(F)(F)F)c2)CN(c2cccc(C4(c5nncn5C)CC5(CC5)C4)c2)C3=O)C1` [Compound 42, 6-[[(3S)-3-methyl-1-piperidyl]methyl]-2-[3-[5-(4-methyl-1,2,4-triazol-3-yl)spiro[2.3]hexan-5-yl]phenyl]-4-(trifluoromethyl)isoindolin-1-one] registered a 50% inhibitory concentration (IC50) on Cbl-b [1] of under 1 nM. In addition, in test [2], the “IL-2 secretion CD3/CD28 0.3 μM” value is “A (A indicates >15 fold)”, the “IL-2 secretion CD3/CD28 1 μM” value is recorded as “A (A indicates >15 fold)”, the “IL-2 secretion CD3 1 μM” value is recorded as “A (A indicates >0.66 fold)” and the “IL-2 secretion CD3 3 μM” value is given as “A (A indicates >0.66 fold)”. Besides, at Cbl-b [4], the IC50 is under 1 nM. Moreover, in test [5], the “IL-2 secretion CD3/CD28 0.3 μM” value is given as “A (A indicates >15 fold)”, the “IL-2 secretion CD3/CD28 1 μM” value was “A (A indicates >15 fold)”, the “IL-2 secretion CD3 1 μM” value is listed as “A (A indicates >0.66 fold)” and the “IL-2 secretion CD3 3 μM” value is on record as “A (A indicates >0.66 fold)”. For the same compound, in test [6], the “CD25 staining CD3/CD28 0.3 μM” value is “B (B indicates 1.24-1.39 fold)”, the “IL-2 secretion CD3/CD28 0.3 μM” value is “B (B indicates 20-35 fold)”, the “CD25 staining CD3/CD28 1 μM” value is “B (B indicates 1.24-1.39 fold)” and the “IL-2 secretion CD3/CD28 1 μM” value is “A (A indicates >35 fold)”. In addition, in test [6], the “CD25 staining CD3 1 μM” value was “A (A indicates >2.5 fold)”, the “IL-2 secretion CD3 1 μM” value is “A (A indicates >1.1 fold)”, the “CD25 staining CD3 3 μM” value is given as “A (A indicates >2.5 fold)” and the “IL-2 secretion CD3 3 μM” value is listed as “A (A indicates >1.1 fold)”. Besides, the IC50 at Cbl-b [7] (setting [8]) was under 5 nM.
